In US9440982B2 (Eolas Therapeutics, Inc., priority 2012, dated 2016):
pIC50: −log10 of the molar value.

Biological target: T1, OX1 (Homo sapiens, UniProt O43613)
T1 construct: expressed in transfected cells; host or cells: CHO (CHO-OX1, kept under selection antibiotic)
T1 sequence (O43613 1-425): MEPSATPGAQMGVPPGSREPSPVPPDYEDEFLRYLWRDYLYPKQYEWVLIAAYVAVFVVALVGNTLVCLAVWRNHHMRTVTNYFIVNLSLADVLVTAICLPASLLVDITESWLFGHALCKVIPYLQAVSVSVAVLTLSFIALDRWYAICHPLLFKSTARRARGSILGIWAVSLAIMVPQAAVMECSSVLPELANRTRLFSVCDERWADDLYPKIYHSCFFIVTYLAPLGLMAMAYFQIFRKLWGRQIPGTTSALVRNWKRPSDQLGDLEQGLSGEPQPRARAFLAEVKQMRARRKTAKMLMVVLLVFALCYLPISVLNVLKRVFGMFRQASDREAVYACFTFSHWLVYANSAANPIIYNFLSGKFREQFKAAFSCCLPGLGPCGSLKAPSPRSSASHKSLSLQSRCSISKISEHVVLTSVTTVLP
Test: Orexin receptor cell-based functional assay, [Ca2+]i by FLIPR, CHO-OX1 cells
Conditions: CHO-OX1 cells, [Ca2+]i by FLIPR, antagonist dose-range 0.1 nM-10 μM, EC90 of OXA; read-out: OX1
Outline: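 CHO cells expressing human OX1 or OX2 loaded with calcium dye plus 2.5 mM probenecid at 37° C (calcium4, 30 min, or calcium6, 2 h), then exposed to compounds (0.1 nM-10 μM) for 30 min. Intracellular Ca2+ measured on FLIPR; antagonist format.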

Going from `Cc1c(F)ccc(-n2nccn2)c1C(=O)N1CCC[C@@H](C)[C@H]1CNc1ccc(C(F)(F)F)cn1` [Example A384, (3-Fluoro-2-methyl-6-(2H-1,2,3-triazol-2-yl)phenyl)((2S,3R)-3-methyl-2-(((5-(trifluoromethyl)pyridin-2-yl)amino)methyl)piperidin-1-yl)methanone] to `C[C@@H]1CCCN(C(=O)c2c(-c3ncccn3)ccc(F)c2F)[C@@H]1CNc1ncc(C(F)(F)F)cn1` [Example A389, (2,3-Difluoro-6-(pyrimidin-2-yl)phenyl)((2S,3R)-3-methyl-2-(((5-(trifluoromethyl)pyrimidin-2-yl)amino)methyl)piperidin-1-yl)methanone], the pIC50 rises from 7.72 to 8.30 (0.58 log units).

Compared with `Cc1ccc(-c2cccnc2)c(C(=O)N2CCC[C@@H](C)[C@H]2CNc2ncc(Cl)cn2)n1` [Example A222, ((2S,3R)-2-(((5-Chloropyrimidin-2-yl)amino)methyl)-3-methylpiperidin-1-yl)(6-methyl-[3,3′-bipyridin]-2-yl)methanone], `Cc1ccc(-c2cnn(C)c2)c(C(=O)N2CCC[C@@H](C)[C@H]2COc2ccc(C(F)(F)F)cn2)c1` [Example A114, ((2S,3R)-3-Methyl-2-(((5-(trifluoromethyl)pyridin-2-yl)oxy)methyl)piperidin-1-yl)(5-methyl-2-(1-methyl-1H-pyrazol-4-yl)phenyl)methanone] is lower in pIC50: 7.09 for the first, less than 6.00 for the second.

Same assay, conditions: Table 2; CHO-OX1 cells, EC90 of OXA; read-out: IC50 Bioactivity OX1

First: Cc1nc(C(=O)N2CCC[C@@H](C)[C@H]2CNc2cccc3cccnc23)c(-c2ccc(F)cc2)s1 (racemic) [Example 74, rac-cis-(3-Methyl-2-((quinolin-8-ylamino)methyl)piperidin-1-yl)(5-(4-fluorophenyl)-2-methylthiazol-4-yl)methanone]
Second: Cc1nc(C(=O)N2CCC[C@@H](C)[C@H]2CNc2nc3ccccc3s2)c(-c2ccc(F)cc2)s1 (racemic) [Example 72, rac-cis-(2-((Benzo[d]thiazol-2-ylamino)methyl)-3-methylpiperidin-1-yl)(5-(4-fluorophenyl)-2-methylthiazol-4-yl)methanone]
The pIC50 of the first is 0.98 log units lower: 7.24 for the first, 8.22 for the second.

First: Cc1ccc(-n2nccn2)c(C(=O)N2CCC[C@@H](C)[C@H]2CNc2ncc(C(F)(F)F)cn2)c1 (racemic) [Example 97, rac-cis-(3-Methyl-2-(((5-(trifluoromethyl)pyrimidin-2-yl)amino)methyl)piperidin-1-yl)(5-methyl-2-(2H-1,2,3-triazol-2-yl)phenyl)methanone]
Second: Cc1ccc(-c2ccncc2)c(C(=O)N2CCC[C@@H](C)[C@H]2CNc2ccc(C(F)(F)F)cn2)c1 (racemic) [Example 106, rac-cis-(3-Methyl-2-(((5-(trifluoromethyl)pyridin-2-yl)amino)methyl)piperidin-1-yl)(5-methyl-2-(pyridin-4-yl)phenyl)methanone]
The pIC50 of the first is 0.65 log units higher: 8.05 for the first, 7.40 for the second. The first is the more potent here.

Biological target: T2, CYP3A4 (Homo sapiens, UniProt P08684)
T2 construct: pre-incubated with human liver microsomes and NADPH; from tissue; host or cells: human liver microsomes
T2 sequence (P08684 whole entry): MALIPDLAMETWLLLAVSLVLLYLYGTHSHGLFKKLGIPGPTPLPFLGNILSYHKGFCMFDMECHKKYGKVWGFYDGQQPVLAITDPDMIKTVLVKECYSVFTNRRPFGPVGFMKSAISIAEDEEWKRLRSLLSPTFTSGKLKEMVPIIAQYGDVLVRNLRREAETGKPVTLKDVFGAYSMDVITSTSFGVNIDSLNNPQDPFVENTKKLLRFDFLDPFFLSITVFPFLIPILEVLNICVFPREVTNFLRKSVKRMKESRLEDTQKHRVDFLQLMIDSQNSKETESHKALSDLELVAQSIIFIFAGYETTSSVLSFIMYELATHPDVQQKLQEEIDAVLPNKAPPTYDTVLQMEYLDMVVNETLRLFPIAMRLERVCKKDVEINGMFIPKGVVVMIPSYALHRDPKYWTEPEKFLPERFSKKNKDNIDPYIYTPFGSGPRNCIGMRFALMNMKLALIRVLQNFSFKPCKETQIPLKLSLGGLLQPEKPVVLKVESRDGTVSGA
Test: Cytochrome P450 inhibition assay (midazolam hydroxylation)
Type: in vitro ADME
Conditions: human, human liver microsomes, probe midazolam (hydroxylation to 1′-hydroxymidazolam), 10 μM test compound, midazolam at approximately its Km
Procedure: Compounds were tested for the potential to induce drug-drug interactions by inhibition of the cytochrome P450 3A4 isoform. The assay evaluated the metabolism of a specific marker substrate (CYP3A4, midazolam hydroxylation to 1′-hydroxymidazolam) in the presence or absence of 10 μM test compound. The concentration of the marker substrate was approximately its Km (Dixit et al., Biopharm. Drug Dispos. 2007, 28(5), 257-262). A specific inhibitor for the isoform was included in each run to validate the system. An appropriate positive control inhibitor was used. Mechanism-based inhibition was investigated where warranted using a classical method. To evaluate time-dependent inhibition, parallel samples may have been included where […] was pre-incubated with human liver microsomes and NADPH for 30 min prior to the addition of the P450 substrate. The percent inhibition of the pre-incubated and non-pre-incubated samples were compared as a preliminary evaluation of time-dependent inhibition.

Going from `Cc1cccc(C(=O)N2CCC[C@@H](C)[C@H]2CNc2ccc(C(F)(F)F)cn2)c1-n1nccn1` [Example A266, ((2S,3R)-3-Methyl-2-(((5-(trifluoromethyl)pyridin-2-yl)amino)methyl)piperidin-1-yl)(3-methyl-2-(2H-1,2,3-triazol-2-yl)phenyl)methanone] to `C[C@@H]1CCCN(C(=O)c2cc(F)ccc2-n2nccn2)[C@@H]1CNc1ncc(C(F)(F)F)cn1` [Example A207, (5-Fluoro-2-(2H-1,2,3-triazol-2-yl)phenyl)((2S,3R)-3-methyl-2-(((5-(trifluoromethyl)pyrimidin-2-yl)amino)methyl)piperidin-1-yl)methanone], the inhibition at 10 µM falls from 76% to 44%.

`Cc1ccc(-n2nccn2)c(C(=O)N2CCC[C@@H](C)[C@H]2CNc2nnc(C(F)(F)F)s2)c1` [Example A102, ((2S,3R)-3-Methyl-2-(((5-(trifluoromethyl)-1,3,4-thiadiazol-2-yl)amino)methyl)piperidin-1-yl)(5-methyl-2-(2H-1,2,3-triazol-2-yl)phenyl)methanone] showed an inhibition at 10 µM of 48%.
